Here are results for 26 molecules from paper PMC6084004 (2017).

By melting point is commonly meant the temperature, or range, at which the solid turns liquid. `OC[C@H]1O[C@@H](n2c3ccc(Cl)cc3c3c(-c4ccco4)ncnc32)[C@@H](O)[C@@H]1O` came in with a melting point of 241 to 243 °C.

`OC[C@H]1O[C@@H](n2c3ccc(Cl)cc3c3c(-c4ccco4)ncnc32)[C@H](F)[C@@H]1O` had a melting point of 203 to 206 °C. Next, `OC[C@H]1O[C@@H](n2c3ccc(Cl)cc3c3c(-c4ccsc4)ncnc32)[C@@H](F)[C@@H]1O`: 240 to 241 °C.

For `OC[C@H]1O[C@@H](n2c3ccc(Cl)cc3c3c(-c4ccoc4)ncnc32)[C@@H](O)[C@@H]1O`, the melting point lay within 186 to 188 °C. The same measure for `OC[C@H]1O[C@@H](n2c3ccc(Cl)cc3c3c(-c4cccs4)ncnc32)[C@@H](O)[C@@H]1O`: 192 to 194 °C. Next, `OC[C@H]1O[C@@H](n2c3ccc(Cl)cc3c3c(-c4ccccc4)ncnc32)[C@H](F)[C@@H]1O`: 192 to 193 °C; `Nc1ncnc2c1c1cc(Cl)ccc1n2[C@@H]1O[C@H](CO)[C@@H](O)[C@@H]1F`: 267 to 272 °C. Molecule `CSc1ncnc2c1c1cc(Cl)ccc1n2[C@@H]1O[C@H](CO)[C@@H](O)[C@H]1F` came in with a melting point of 205 to 209 °C. On to `OC[C@H]1O[C@@H](n2c3ccc(Cl)cc3c3c(-c4cccs4)ncnc32)[C@H](F)[C@@H]1O`, for which the melting point was in the range of 206 to 211 °C.

The molecule `COc1ncnc2c1c1cc(Cl)ccc1n2[C@@H]1O[C@H](CO)[C@@H](O)[C@@H]1O` had a melting point of 238 to 241 °C. The same measure for `Nc1ncnc2c1c1cc(Cl)ccc1n2[C@@H]1O[C@H](CO)[C@@H](O)[C@@H]1O`: 298 to 301 °C. The same measure for `Cc1ncnc2c1c1cc(Cl)ccc1n2[C@@H]1O[C@H](CO)[C@@H](O)[C@H]1F`: 247 to 251 °C; for `OC[C@H]1O[C@@H](n2c3ccc(Cl)cc3c3c(-c4ccco4)ncnc32)[C@@H](F)[C@@H]1O`: 75 to 81 °C; for `Cc1ncnc2c1c1cc(Cl)ccc1n2[C@@H]1O[C@H](CO)[C@@H](O)[C@@H]1F`: 211 to 216 °C. The same measure for `CSc1ncnc2c1c1cc(Cl)ccc1n2[C@@H]1O[C@H](CO)[C@@H](O)[C@@H]1F`: 230 to 231 °C; for `OC[C@H]1O[C@@H](n2c3ccc(Cl)cc3c3c(-c4ccsc4)ncnc32)[C@H](F)[C@@H]1O`: 221 to 222 °C; for `Cc1ncnc2c1c1cc(Cl)ccc1n2[C@@H]1O[C@H](CO)[C@@H](O)[C@@H]1O`: 233 to 235 °C. The molecule `OC[C@H]1O[C@@H](n2c3ccc(Cl)cc3c3c(-c4ccccc4)ncnc32)[C@@H](F)[C@@H]1O` registered a melting point of 214 to 216 °C.

Take `OC[C@H]1O[C@@H](n2c3ccc(Cl)cc3c3c(-c4ccsc4)ncnc32)[C@@H](O)[C@@H]1O`: the melting point was in the range of 207 to 209 °C. The same measure for `Nc1ncnc2c1c1cc(Cl)ccc1n2[C@@H]1O[C@H](CO)[C@@H](O)[C@H]1F`: 275 to 278 °C. The same measure for `OC[C@H]1O[C@@H](n2c3ccc(Cl)cc3c3c(-c4ccoc4)ncnc32)[C@@H](F)[C@@H]1O`: 208 to 214 °C; for `OC[C@H]1O[C@@H](n2c3ccc(Cl)cc3c3c(-c4ccccc4)ncnc32)[C@@H](O)[C@@H]1O`: 183 to 185 °C. The same measure for `CSc1ncnc2c1c1cc(Cl)ccc1n2[C@@H]1O[C@H](CO)[C@@H](O)[C@@H]1O`: 181 to 183 °C. The molecule `COc1ncnc2c1c1cc(Cl)ccc1n2[C@@H]1O[C@H](CO)[C@@H](O)[C@@H]1F` showed a melting point of 248 to 250 °C. Next, `OC[C@H]1O[C@@H](n2c3ccc(Cl)cc3c3c(-c4cccs4)ncnc32)[C@@H](F)[C@@H]1O`: 225 to 227 °C. The same measure for `OC[C@H]1O[C@@H](n2c3ccc(Cl)cc3c3c(-c4ccoc4)ncnc32)[C@H](F)[C@@H]1O`: 184 to 186 °C.
